According to patent US4072760A, “Bronchospasmolytic phenylethanolamines” (Pharmacia AS, priority 1974, dated 1978):
Like-named read-outs stand apart in the source and are kept apart here.

Experiments:
[1] = test system: β2 -stimulation, lungs guinea pig; assay: Bronchospasmolytic effect (β2 -stimulation), Konzett-Rossler technique in anaesthetized guinea pig lungs; type: in vivo; conditions: Cavia porcellus, doses as free base of the racemic compound
[2] = test system: β1 -stimulation, heart rate mice; assay: Heart rate increasing effect (β1 -stimulation) in pentobarbital anaesthetized mice; type: in vivo; conditions: Mus musculus, iv, dose giving an increase in heart rate of 100 beats/min, as free base
Description: An especially valuable feature of the present invention is that typical and preferred representative of the compounds of the invention show a high bronchial selectivity (ratio of bronchospasmolytic activity to heart rate increasing effect) as compared to existing well-known broncholytics. […] The ratio, heart rate increasing dose ("ED 100") divided by bronchospasmolytic dose (ED 50), is a measure of the degree of selectivity of the bronchospasmolytic action. This ratio was calculated for a number of the compounds of the invention and for some of the most relevant compounds of reference.

[3] = test system: β2 -stimulation versus β1 -stimulation; assay: Bronchial selectivity: heart rate increasing dose ("ED 100") divided by bronchospasmolytic dose (ED 50); type: in vivo; conditions: heart rate ED 100 (mice, i.v.) / bronchospasmolytic ED 50 (guinea pig, i.v.)
Description: The ratio, heart rate increasing dose ("ED 100") divided by bronchospasmolytic dose (ED 50), is a measure of the degree of selectivity of the bronchospasmolytic action. This ratio was calculated for a number of the compounds of the invention and for some of the most relevant compounds of reference.

conscious guinea pigs [4] = assay: Bronchospasmolytic dose in conscious guinea pigs, acetylcholine aerosol as spasmogen (Wardell); type: in vivo; conditions: pressurized aerosol of 1% acetylcholine, more active than salbutamol
Description: (§1) The effective bronchospasmolytic doses of the two compounds were determined using a pressurized aerosol of a 1% acetylcholine solution as the spasmogen according to the method of […]. Pharmacol Exp. Therap. 1974, 189, 167-184 and the heart rate was determined according to Farmer et al. (Br. J. Pharmac. Chemotherap. 1968, 32, 193-200.

conscious guinea pigs [5] = assay: Heart rate in conscious guinea pigs (Farmer et al.); type: in vivo
Description: as §1

[6] = test system: β-stimulation of the skeletal muscles; assay: Tremor-inducing activity (β-stimulation of the skeletal muscles) compared to bronchospasmolytic activity in cats (Bowman and Nott); type: in vivo
Description: For a few of the compounds of the invention, the tremor-inducing activity (β-stimulation of the skeletal muscles) was determined in cats (in accordance with the technique of Bowman, W. C. and Nott, M. W.: Actions of some sympathomimetic bronchodilator and beta-adrenoceptor blocking drugs on contractions of the cat soleus muscle, Brit. J. Pharmac., 1970, 38, 37-49) and compared to the bronchospasmolytic activity in the same species.

dogs = conditions: dog, in vivo
Source text: (§2) Compounds of the present invention are well tolerated, as appears from the table.

[7] = design: species or system rate; conditions: in vivo
Source text: as §2

in vivo = conditions: mouse
Source text: Furthermore the acute toxicity in mice after intraveneous and oral administration is given.

## COc1ccc(CNc2cc(C(O)CNC(C)(C)C)ccc2O)cc1.Cl (stereo not drawn) [3-(4-Methoxybenzylamino)-4-hydroxy-α-(tert.butylaminomethyl)-benzylalcohol hydrochloride]
[1]; i.d. = intraduodenally, read-out: β2 -stimulation lungs guinea pig ED 50 i.d.
  ED50: 1 mg/kg
[1]; iv, read-out: β2 -stimulation lungs guinea pig ED 50 i.v.
  ED50: 0.003 mg/kg
[2]
  ED (increase of 100 beats/min): 0.1 mg/kg
[3]
  Ratio "ED 100"/ED 50: 33
Conscious guinea pigs [4]
  broncholytic activity relative to salbutamol: 10 times
Conscious guinea pigs [5]
  heart rate stimulating effect compared with salbutamol: the heart rate stimulating effect was the same
[6]
  ratio between bronchospasmolytic dose and tremor-inducing dose, compared with salbutamol: a better ratio than salbutamol
dogs
  acute intravenous and oral toxicity test: tolerability: good tolerability
  two week tolerance test in dogs: tolerability: good tolerability
[7]
  three month toxicity test: toxic reactions: no toxic reactions
In vivo; iv
  LD50: 20 mg/kg
In vivo; po
  LD50: 300 mg/kg
